In patent US7723301B2, “Pharmaceutical compositions comprising an anti-teratogenic compound and applications of the same” (The Board of Trustees of the University of Arkansas, priority 2007, dated 2010):
“Also recorded” adds a separate entry of the source.

B1: Noggin: recombinant Noggin, an inhibitor of Bmp signaling (protein, UniProt P97466 28-232, looked up)
Noggin: QHYLHIRPAPSDNLPLVDLIEHPDPIFDPKEKDLNETLLRSLLGGHYDPGFMATSPPEDRPGGGGGPAGGAEDLAELDQLLRQRPSGAMPSEIKGLEFSEGLAQGKKQRLSKKLRRKLQMWLWSQTFCPVLYAWNDLGSRFWPRYVKVGSCFSKRSCSVPEGMVCKPSKSVHLTVLRWRCQRRGGQRCGWIPIQYPIISECKCSC

Experiments:
[1] = tested on: primary limb bud cells (PLBCs); assay: Cell death by trypan blue staining in PLBCs; type: cell-based, chicken; settings: for effect on juglone-induced cell death in PLBCs: pre-treatment for one hour, juglone 5 μM two hours; for effect on BMP4-induced PCD in PLBCs: rh BMP4 300 ng/ml; for effect on thalidomide-induced cell death in PLBCs: thalidomide 10 μg/ml, six hours
Protocol: (§1) Primary limb bud cells (PLBCs) were isolated from 60 pooled wing and hindlimb buds of HH stages 23/24 embryos. Fibroblasts were gained from HH stage 34 chicken embryos or from 13.5 d.p.c. mouse embryos. Human embryonic fibroblasts were provided by Matthias Maass (2). Before adding reagents, all cell types were cultured for 16 hours in D-MEM (Gibco) plus 10% fetal calf serum (FCS) and 2% chicken serum. Treatment with thalidomide, phthalimide, recombinant human (rh) BMP4 (300 ng/ml; R&D Systems), juglone (5 μM; Sigma), recombinant mouse Noggin (30, 300, 1000 ng/ml in FIG. 4B; 300 ng/ml in FIGS. 4C and 6A), anti-human-DKK1 antibody (35, 350 and 1000 ng/ml in FIG. 4B; 350 ng/ml in FIGS. 4C and 6A), LiCl (3, 30, 60 mM in FIG. 4B; 30 mM in FIGS. 4C, 6A and 6C) and/or (2Z,3E)-6-Bromoindirubin-3-oxime (BIO, Gsk3-Inhibitor IX; 50, 500, 1000 nM in FIG. 4B; 500 nM in FIG. 6A; 50 and 500 nM in FIG. 6C; Calbiochem) were performed in Optimem1 (Invitrogen) plus 1% FCS. Unless otherwise noted, all treatments with thalidomide and rh-BMP4 and associated controls were done for six hours. Inhibitors were applied once at the beginning of incubation with the exception of LiCl that was added 150 minutes before harvesting the cells for further analyses. Pre-treatment with phenyl-N-t-butylnitrone (PBN; 2 mM; Sigma) was performed for one hour. Incubations with juglone were performed for two hours, if applicable, after a pre-treatment with PBN, Noggin, anti-Dkk1 antibody, LiCl or Gsk3-Inhibitor IX for one hour.
(§2) Cell death in PLBCs, CEFs, MEFs and HEFs was detected by staining with trypan blue (0.1% (w/v) in PBS; Sigma) for 90 seconds. Cells were counted in a counting chamber to determine the ratio of dead to live cells.

chicken embryos [2] = assay: Inhibitors counteracting thalidomide-induced limb truncations and microphthalmia in chicken embryos; type: in vivo; settings: for embryos with limb truncations, thalidomide-treated plus inhibitor: Noggin 100 ng/embryo or LiCl 0.6 mg/embryo at HH stages 17-19
Protocol: (§3) Fertilized eggs were purchased from Deindl GmbH, Rietberg-Varensell. They were incubated at 38° C. in a humidified incubator, windowed after one day and staged according to Hamburger and Hamilton (HH stage). Racemic thalidomide (Celgene), thalidomide enantiomers or phthalimide (Sigma) were dissolved in DMSO at 5 mg/ml and further diluted in PBS. Embryos were exposed to drugs by dropping 15 μg-3 mg thalidomide or phthalimide per kg egg weight (about 1-200 μg per embryo) in 50 μl DMSO/PBS as a single dose at HH stages 0-13 onto the embryo. Thalidomide (50 μg) or phthalimide (50 μg) in 10 μl DMSO was injected into the extra-embryonic blood vessels of HH 19 stage embryos. LiCl (99% pure, Sigma) was dissolved in sterile PBS. LiCl (0.1, 0.6 or 3.2 mg) was applied at HH stages 17-19 by dropping 500 μl of a 5 mM, 28 mM or 151 mM LiCl solution onto the embryo. Recombinant Noggin, Dkk1 specific goat IgG (R&D Systems) or serum of non-immunized goats (Sigma) was dissolved in 0.1% BSA/0.01% Fast Green/PBS. Noggin (10 or 100 ng), Dkk1 specific goat IgG (5 or 50 ng) or serum of non-immunized goats (50 ng) was applied to a single embryo at HH stages 17-19 by injecting a 10 μl solution through the extra-embryonic membranes.
(§4) The morphology of the limbs was studied in specimens fixed in 5% trichloroacetic acid and stained for cartilage with alcian green as described (3).

[3] = tested on: human embryonic fibroblasts (HEFs); assay: Cell death by trypan blue staining in HEFs; type: cell-based; settings: for effect on thalidomide-induced cell death in HEFs: Noggin 300 ng/ml, anti-DKK1 antibody 350 ng/ml, LiCl 30 mM
Protocol: as §1, §2

[4] = tested on: primary chicken embryonic fibroblasts (CEFs); assay: Cell death by trypan blue staining in CEFs; type: cell-based; settings: data not shown
Protocol: as §1, §2

[5] = tested on: limb buds of HH stages 23/24 chicken embryos; assay: Whole mount TUNEL staining of limb buds; type: in vivo; settings: LiCl 0.6 mg per embryo at HH stages 17-19, 19 of 80
Protocol: TUNEL staining was performed as described (7).

[6] = tested on: Bmp4 and Dkk1 expression in PLBCs; assay: sqRT-PCR of Bmp4 and Dkk1 expression in PLBCs; type: cell-based, chicken
Protocol: as §1
(§5) RNA isolation, semi-quantitative RT-PCRs and whole mount in situ hybridizations were performed according to standard protocols that are well known within the art. RNA was isolated using TRIZOL (Gibco BRL) followed by DNAseI digestion. First strand synthesis was carried out with the Expand RT System (Roche) according to the manufacturer's instructions. PCR amplification was carried out primers and conditions within the knowledge of a person having skill in the relevant art. Quantifications were performed using NIH Image 1.62.

[7] = tested on: Bmp4 and Dkk1 expression in HEFs; assay: sqRT-PCR of Bmp4 and Dkk1 expression in HEFs; type: cell-based, human
Protocol: as §1, §5

[8] = tested on: Dkk1 and Bmp expression in limb buds; assay: sqRT-PCR and whole mount in situ hybridization of Dkk1 and Bmp expression in limb buds; type: in vivo, chicken; settings: data not shown
Protocol: as §5

chicken embryos [9] = assay: Thalidomide-induced limb truncations and microphthalmia in chicken embryos; type: in vivo; settings: applied to chicken embryos, control reagent
Protocol: as §3, with “LiCl (99% pure, Sigma) was dissolved in sterile PBS. LiCl (0.1, 0.6 or 3.2 mg) was applied at HH stages 17-19 by dropping 500 μl of a 5 mM, 28 mM or 151 mM LiCl solution onto the embryo.” left out
as §4

Wnt/β-catenin signaling = assay: TOPflash luciferase reporter assay in CEFs; type: cell-based, chicken; settings: Wnt3a-conditioned medium, 24 hours
Protocol: Plasmids with wild type (TOPflash) or mutated (FOPflash) LEF/TCF binding sites (5) upstream of a luciferase reporter gene were transiently transfected into CEFs using Lipofectamine (Invitrogen). Following transfection for 24 hours, the cells were exposed to Wnt3a-conditioned medium or to control medium (6) with or without thalidomide or recombinant human DKK1 (150 ng/ml, R&D Biosystems) for 24 hours prior to luciferase assay. Values were normalized for transfection efficiency by co-transfection with a pSV-β-galactosidase vector and for the number of living cells. Luciferase activity was measured using the Dual-Light System (Applied Biosystems).

| Molecule | effect on juglone-induced cell death in PLBCs [1] | effect on BMP4-induced PCD in PLBCs [1] | effect on thalidomide-induced cell death in PLBCs [1] | embryos with limb truncations, thalidomide-treated plus inhibitor (chicken embryos [2]) | effect on thalidomide-induced cell death in HEFs [3] | effect on thalidomide-induced cell death in CEFs [4] | also measured |
| --- | --- | --- | --- | --- | --- | --- | --- |
| O=C1Nc2cc(Br)ccc2/C1=C1/Nc2ccccc2/C1=N\O [Gsk3-Inhibitor IX, (2Z,3E)-6-Bromoindirubin-3-oxime] | could be inhibited | counteracted BMP4-induced PCD in a dose-dependent manner | completely abrogate |  |  |  |  |
| [Cl-].[Li+] [LiCl] | could be inhibited | counteracted BMP4-induced PCD in a dose-dependent manner | completely abrogate | 5% | block thalidomide-induced cell death | block thalidomide-induced cell death | rescue of thalidomide-induced microphthalmia (chicken embryos [2]; 0.6 mg LiCl): did not rescue; embryos with thalidomide-induced microphthalmia plus LiCl (chicken embryos [2]; 3.2 mg LiCl per embryo): 9%; individual limb buds with enhanced PCD (TUNEL) in thalidomide-treated embryos given inhibitor [5]: 24% |
| CC(C)(C)[N+]([O-])=Cc1ccccc1 [PBN, phenyl-N-t-butylnitrone] | completely reduces; also recorded: could be inhibited | no significant effect; also recorded: did not influence | completely reduces; also recorded: completely inhibited |  |  |  | effect on up-regulation of Bmp4 and Dkk1 expression in thalidomide-treated PLBCs ([6]; pre-treatment with PBN, data not shown): abolishes the up-regulation; effect on up-regulation of Bmp4 and Dkk1 expression in thalidomide-treated HEFs ([7]; pre-treatment with PBN): abolishes the up-regulation |
| O=C1NC(=O)c2ccccc21 [phthalimide] |  |  |  |  |  |  | induction of PCD in PLBCs [1]: did not induce PCD; Bmp and Dkk1 expression in limb buds [8]: not altered; limb or eye defects (chicken embryos [9]): did not cause limb or eye defects; expression of Bmp4 and Dkk1 in PLBCs ([6]; 10 μg/ml, six hours): did not influence the expression; expression of Bmp4 and Dkk1 in HEFs ([7]; 10 μg/ml, six hours): did not influence the expression; potential to induce PCD in HEFs [3]: did not induce PCD |
| recombinant DKK1: recombinant human DKK1, positive control in the TOPflash assay |  |  |  |  |  |  | effect on Wnt3a-induced TOPflash activity (Wnt/β-catenin signaling): clearly counteracted |
| B1 | could be inhibited |  | only a partial neutralization; also recorded: clearly reduced | 5% | block thalidomide-induced cell death | block thalidomide-induced cell death |  |
